Measured values from ChEMBL document CHEMBL1145407, “Structure-activity relationships of alpha-ketooxazole inhibitors of fatty acid amide hydrolase” (J Med Chem, 2007).

Assays:
[1] = Selectivity for rat recombinant FAAH over TGH
[2] = biological target: T1, Fatty-acid amide hydrolase 1 (Rattus norvegicus, UniProt P97612); experiment: Inhibition of rat recombinant FAAH expressed in Escherichia coli
T1 sequence (P97612 whole entry): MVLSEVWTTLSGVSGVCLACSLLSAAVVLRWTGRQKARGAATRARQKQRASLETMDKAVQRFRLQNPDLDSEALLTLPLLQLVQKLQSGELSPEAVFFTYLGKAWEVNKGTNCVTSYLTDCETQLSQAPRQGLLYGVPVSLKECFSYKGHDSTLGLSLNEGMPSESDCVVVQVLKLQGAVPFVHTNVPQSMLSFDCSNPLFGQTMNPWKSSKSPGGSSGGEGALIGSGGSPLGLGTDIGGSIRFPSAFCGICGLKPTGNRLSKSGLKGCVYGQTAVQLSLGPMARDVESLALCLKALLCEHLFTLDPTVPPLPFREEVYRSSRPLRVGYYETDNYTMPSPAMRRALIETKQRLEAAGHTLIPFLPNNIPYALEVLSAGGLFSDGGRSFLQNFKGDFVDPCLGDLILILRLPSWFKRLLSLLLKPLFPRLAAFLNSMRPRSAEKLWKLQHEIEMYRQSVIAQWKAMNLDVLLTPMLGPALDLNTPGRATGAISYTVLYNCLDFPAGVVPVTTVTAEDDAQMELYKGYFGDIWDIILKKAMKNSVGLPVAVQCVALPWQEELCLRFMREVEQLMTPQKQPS

[3] = Selectivity for rat recombinant FAAH over KIAA1363
[4] = biological target: T2, Fatty-acid amide hydrolase 1 (Homo sapiens, UniProt O00519); experiment: Inhibition of human FAAH expressed in COS-7 cells
T2 sequence (O00519 whole entry): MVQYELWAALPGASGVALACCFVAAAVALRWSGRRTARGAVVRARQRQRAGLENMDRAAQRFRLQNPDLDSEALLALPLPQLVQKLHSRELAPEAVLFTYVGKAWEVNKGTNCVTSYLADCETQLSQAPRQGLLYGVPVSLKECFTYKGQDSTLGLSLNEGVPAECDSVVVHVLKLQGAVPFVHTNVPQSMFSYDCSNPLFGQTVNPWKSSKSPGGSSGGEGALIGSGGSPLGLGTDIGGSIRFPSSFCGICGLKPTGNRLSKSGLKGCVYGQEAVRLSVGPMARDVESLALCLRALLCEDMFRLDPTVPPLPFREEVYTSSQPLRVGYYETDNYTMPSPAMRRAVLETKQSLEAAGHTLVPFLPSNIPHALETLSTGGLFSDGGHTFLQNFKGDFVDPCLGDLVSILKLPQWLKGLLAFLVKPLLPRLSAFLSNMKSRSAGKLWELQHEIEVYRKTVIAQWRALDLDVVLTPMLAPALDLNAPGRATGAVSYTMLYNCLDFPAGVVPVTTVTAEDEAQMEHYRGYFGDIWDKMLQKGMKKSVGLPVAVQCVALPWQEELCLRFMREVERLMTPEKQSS

| Structure (SMILES) | Ratio IC50 [1] | Ki [2] [nM] | Selectivity ratio [3] | Ratio IC50 [3] | Ki [4] [nM] |
| --- | --- | --- | --- | --- | --- |
| COc1ccc(CCCCCCC(=O)c2ncc(-c3ccccn3)o2)cc1 | 250 | 6.2 | > 5000 | – | – |
| O=C(CCCCCCc1ccc2ccccc2c1)c1ncc(-c2ccccn2)o1 | 0.5 | 11 | – | > 2500 | – |
| Cc1ccc(CCCCCCC(=O)c2ncc(-c3ccccn3)o2)cc1 | 125 | 2.8 | – | > 2500 | – |
| CSc1ccccc1CCCCCCC(=O)c1ncc(-c2ccccn2)o1 | 300 | 3.3 | – | > 3300 | – |
| CS(=O)(=O)c1ccccc1CCCCCCC(=O)c1ncc(-c2ccccn2)o1 | 30 | 37 | – | > 1000 | – |
| CCCCCCc1ccc(CCCCCCC(=O)c2ncc(-c3ccccn3)o2)cc1 | 1000 | 6.7 | – | > 3300 | – |
| Nc1ccc(CCCCCCC(=O)c2ncc(-c3ccccn3)o2)cc1 | 750 | 3 | – | > 25000 | – |

Compounds with a lower Ki [2], results first:

| Ratio IC50 [1] | Ki [2] [nM] | Selectivity ratio [3] | Ratio IC50 [3] | Ki [4] [nM] | Structure (SMILES) |
| --- | --- | --- | --- | --- | --- |
| 100 | 2.2 | – | > 10000 | – | O=C(CCCCCCc1cccc(F)c1)c1ncc(-c2ccccn2)o1 |
| 30 | 1.9 | – | > 5000 | – | O=C(CCCCCCc1ccccc1Cl)c1ncc(-c2ccccn2)o1 |
| 25000 | 1.9 | – | > 250000 | – | COC(=O)c1cccc(CCCCCCC(=O)c2ncc(-c3ccccn3)o2)c1 |
| 25000 | 1 | – | > 250000 | – | COC(=O)c1ccccc1CCCCCCC(=O)c1ncc(-c2ccccn2)o1 |
| 70 | 0.9 | – | > 14000 | 1.2 | O=C(CCCCCCc1cccc(Cl)c1Cl)c1ncc(-c2ccccn2)o1 |
